For 32 molecules, EC50 results are on record in US8003648B2, “Heterocyclic GPR40 modulators” (Amgen Inc., priority 2006, dated 2011).

In this test the target is T1, human GPR40 (Homo sapiens, UniProt O14842).
T1 construct: host or cells: CHO cells
Put plainly: Cell-based aequorin assay using human GPR40. As to conditions: activation of human GPR40; CHO cells stably transfected with GPR40 and Aequorin; 0.01% HSA; aequorin luminescence. As for the experimental part: Cell-based aequorin assays were employed to characterize the modulatory activity of compounds on the GPR40 signaling pathway. In an exemplary assay, CHO cells were stably transfected with both GPR40 and Aequorin (Euroscreen). Cells were detached from the tissue culture dish with 2 mL of trypsin (0.25% (w/v)). Trypsinization was halted with 28 mL of Hanks Buffered Salt Solution containing 20 mM Hepes (H/HBSS) and 0.01% fatty acid-free human serum albumin (HSA). Coelantrazine is added to 1 ug/mL, and the cells were incubated for 2 hours at room temperature. Compounds were dissolved in DMSO for preparation of 10 mM stock solutions. Compounds were diluted in H/HBSS containing 0.01% HSA. Serial dilutions of the test compounds were prepared to determine dose response.
Aequorin luminescence measurements were made using an EG&G Berthold 96-well luminometer, and the response was measured over a 20 second interval after cells and compounds were mixed. The maximum relative light units was plotted to determine dose response. The EC50 (effective concentration to reach 50% maximal response) was determined from the dose response plot.
Table 1 presents representative data (EC50 values) obtained for exemplary compounds of the invention for the activation of human GPR40. […]

T1 sequence (O14842 whole entry): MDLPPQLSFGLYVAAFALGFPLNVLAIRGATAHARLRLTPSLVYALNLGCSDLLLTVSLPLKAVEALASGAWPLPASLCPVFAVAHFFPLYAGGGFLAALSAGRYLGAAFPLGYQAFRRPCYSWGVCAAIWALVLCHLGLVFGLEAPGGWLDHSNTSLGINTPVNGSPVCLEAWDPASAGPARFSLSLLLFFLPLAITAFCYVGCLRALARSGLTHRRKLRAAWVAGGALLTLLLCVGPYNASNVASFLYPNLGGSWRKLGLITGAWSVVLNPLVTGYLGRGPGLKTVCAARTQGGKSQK

Consider `Cc1c(Cl)cccc1-c1cccc(COc2ccc(C(CC(=O)O)c3ccon3)cc2)c1` (centres unmarked) [Example 1, 3-(4-(3-(3-Chloro-2-methylphenyl)benzyloxy)phenyl)-3-(isoxazol-3-yl)propanoic acid], for which the half-maximal effective concentration (EC50) lay within 10 to 100 nM.
The value for `O=C(O)C[C@@H](c1ccc(OCc2cccc(-c3ccc(C(F)(F)F)cc3)c2)cc1)c1ccon1` [Example 2, (S)-3-(4-(3-(4-(Trifluoromethyl)phenyl)benzyloxy)phenyl)-3-(isoxazol-3-yl)propanoic acid] was 10 to 100 nM; that for `O=C(O)C[C@H](c1ccc(OCc2cccc(-c3ccc(C(F)(F)F)cc3)c2)cc1)c1ccon1` [Example 3, (R)-3-(4-(3-(4-(Trifluoromethyl)phenyl)benzyloxy)phenyl)-3-(isoxazol-3-yl)propanoic acid] was 1000 to 10000 nM; that for `CCOc1cc(Cl)ccc1-c1ccc(COc2ccc([C@H](CC(=O)O)c3ccon3)cc2)cc1` [Example 4, (S)-3-(4-(4-(4-Chloro-2-ethoxyphenyl)benzyloxy)phenyl)-3-(isoxazol-3-yl)propanoic acid] was 10 to 100 nM.
`CCOc1cc(Cl)ccc1-c1ccc(COc2ccc([C@@H](CC(=O)O)c3ccon3)cc2)cc1` [Example 5, (R)-3-(4-(4-(4-Chloro-2-ethoxyphenyl)benzyloxy)phenyl)-3-(isoxazol-3-yl)propanoic acid] gave an EC50 of 1000 to 10000 nM.
Molecule `Cc1nc(-c2ccc(C(F)(F)F)cc2)sc1COc1ccc([C@@H](CC(=O)O)c2ccon2)cc1` [Example 6, (R)-3-(Isoxazol-3-yl)-3-(4-((4-methyl-2-(4-(trifluoromethyl)phenyl)thiazol-5-yl)methoxy)phenyl)propanoic acid] displayed a concentration for a half-maximal effect (EC50) of 100 to 1000 nM.
Under `Cc1nc(-c2ccc(C(F)(F)F)cc2)sc1COc1ccc([C@H](CC(=O)O)c2ccon2)cc1` [Example 7, (S)-3-(Isoxazol-3-yl)-3-(4-((4-methyl-2-(4-(trifluoromethyl)phenyl)thiazol-5-yl)methoxy)phenyl)propanoic acid] stands 10 to 100 nM; under `Cc1nc(-c2ccc(C(F)(F)F)cc2)sc1COc1ccc(C(CC(=O)O)C2=NOCC2)cc1` (centres unmarked) [Example 8], 100 to 1000 nM; under `Cc1nc(-c2ccc(C(F)(F)F)cc2)sc1COc1ccc([C@H](CC(=O)O)C2=NOCC2)cc1` [Example 9, (S)-3-(Dihydroisoxazol-3-yl)-3-(4-((4-methyl-2-(4-(trifluoromethyl)phenyl)thiazol-5-yl)methoxy)phenyl)propanoic acid], 10 to 100 nM.
The value for `Cc1ccc(-c2nc(C)c(COc3ccc([C@H](CC(=O)O)C4=NOCC4)cc3)s2)cc1` [Example 10, (S)-3-(Dihydroisoxazol-3-yl)-3-(4-((4-methyl-2-(4-methylphenyl)thiazol-5-yl)methoxy)phenyl)propanoic acid] was 100 to 1000 nM; that for `COc1ccc(-c2nc(COc3ccc([C@H](CC(=O)O)c4ccon4)cc3)no2)cc1` [Example 11, (S)-3-(Isoxazol-3-yl)-3-(4-((5-(4-methoxyphenyl)-1,2,4-oxadiazol-3-yl)methoxy)phenyl)propanoic acid] was 1000 to 10000 nM.
For `O=C(O)C[C@@H](c1ccc(OCc2nc(-c3ccc(OCc4ccc(Cl)cc4)cc3)no2)cc1)c1ccon1` [Example 12, (S)-3-(4-((3-(4-(4-Chlorobenzyloxy)phenyl)-1,2,4-oxadiazol-5-yl)methoxy)phenyl)-3-(isoxazol-3-yl)propanoic acid], the concentration giving a half-maximal response (EC50) was in the range of 100 to 1000 nM.
With `Cc1ccc(-c2ccc(COc3ccc([C@H](CC(=O)O)c4ccon4)cc3)s2)cc1` [Example 13, (S)-3-(Isoxazol-3-yl)-3-(4-((5-p-tolylthiophen-2-yl)methoxy)phenyl)propanoic acid], the EC50 fell in the range of 10 to 100 nM.
`CCCCc1ccc(-c2nc(C)c(COc3ccc([C@H](CC(=O)O)C4=NOCC4)cc3)s2)cc1` [Example 14, (S)-3-(4-((2-(4-Butylphenyl)-4-methylthiazol-5-yl)methoxy)phenyl)-3-(4,5-dihydroisoxazol-3-yl)propanoic acid] displayed a concentration for a half-maximal effect (EC50) of 10 to 100 nM.
Under `Cc1ccc(-c2cc(COc3ccc([C@H](CC(=O)O)c4ccon4)cc3)c(C)o2)cc1` [Example 15, (S)-3-(Isoxazol-3-yl)-3-(4-((2-methyl-5-p-tolylfuran-3-yl)methoxy)phenyl)propanoic acid] stands 10 to 100 nM; under `Cn1nc(-c2ccc(C(F)(F)F)cc2)cc1COc1ccc([C@H](CC(=O)O)c2ccon2)cc1` [Example 16, (S)-3-(Isoxazol-3-yl)-3-(4-((1-methyl-3-(4-(trifluoromethyl)phenyl)-1H-pyrazol-5-yl)methoxy)phenyl)propanoic acid], 100 to 1000 nM; under `Cc1ccc(COc2ccc([C@H](CC(=O)O)c3ccon3)cc2)cc1-c1ccc(CC(C)C)cc1` [Example 17, (S)-3-(4-(3-(4-Isobutyl)-phenyl-4-methylbenzyloxy)phenyl)-3-(isoxazol-3-yl)propanoic acid], 100 to 1000 nM.
`CCCCc1ccc(-c2cc(COc3ccc([C@H](CC(=O)O)c4ccon4)cc3)ccc2C)cc1` [Example 18, (S)-3-(4-(3-(4-Butyl)-phenyl-4-methylbenzyloxy)phenyl)-3-(isoxazol-3-yl)propanoic acid] returned a concentration for a half-maximal effect (EC50) of 100 to 1000 nM.
`CS(=O)(=O)c1cc(COc2ccc([C@H](CC(=O)O)c3ccon3)cc2)ccc1OC(F)(F)F` [Example 19, (S)-3-(4-(3-(Methylsulfonyl)-4-(trifluoromethoxy)benzyloxy)-phenyl)-3-(isoxazol-3-yl)propanoic acid] came in with an EC50 of 1000 to 10000 nM.
The value for `O=C(O)C[C@@H](c1ccc(OCc2ccc(OC(F)(F)F)c(C3=CCCC3)c2)cc1)c1ccon1` [Example 20, (S)-3-(4-(3-Cyclopentenyl-4-(trifluoromethoxy)benzyloxy)-phenyl)-3-(isoxazol-3-yl)propanoic acid] was 10 to 100 nM.
For `O=C(O)C[C@@H](c1ccc(OCc2ccc(Cl)c(C(F)(F)F)c2)cc1)c1ccon1` [Example 21, (S)-3-(4-(4-Chloro-3-(trifluoromethyl)benzyloxy)phenyl)-3-(isoxazol-3-yl)propanoic acid], the EC50 lay in the range of 10 to 100 nM.
Under `O=C(O)C[C@@H](c1ccc(OCc2ccc(OC(F)(F)F)c(OC(F)(F)F)c2)cc1)c1ccon1` [Example 22, (S)-3-(4-(3,4-Bis(trifluoromethoxy)benzyloxy)phenyl)-3-(isoxazol-3-yl)propanoic acid] stands 10 to 100 nM; under `O=C(O)C[C@@H](c1ccc(OCc2ccc(OC(F)(F)F)c(C3CCCC3)c2)cc1)c1ccon1` [Example 23, (S)-3-(4-(3-Cyclopentyl-4-(trifluoromethoxy)benzyloxy)-phenyl)-3-(isoxazol-3-yl)propanoic acid], 10 to 100 nM.
The value for `C=C(C)c1cc(COc2ccc([C@H](CC(=O)O)c3ccon3)cc2)ccc1OC(F)(F)F` [Example 24, (S)-3-(4-(3-(Prop-1-en-2-yl)-4-(trifluoromethoxy)benzyloxy)-phenyl)-3-(isoxazol-3-yl)propanoic acid] was 10 to 100 nM; that for `O=C(O)C[C@@H](c1ccc(OCc2ccc(OC(F)(F)F)c(Br)c2)cc1)c1ccon1` [Example 25, (S)-3-(4-(3-bromo-4-(trifluoromethoxy)benzyloxy)phenyl)-3-(isoxazol-3-yl)propanoic acid] was 10 to 100 nM; that for `CC(C)c1cc(COc2ccc([C@H](CC(=O)O)c3ccon3)cc2)ccc1C(C)(C)C` [Example 26, (S)-3-(4-(4-tert-Butyl-3-isopropylbenzyloxy)phenyl)-3-(isoxazol-3-yl)propanoic acid] was 100 to 1000 nM.
The value for `O=C(O)C[C@@H](c1ccc(OCc2cccc(NC(=O)c3ccc(C(F)(F)F)cc3)c2)cc1)c1ccon1` [Example 27, (S)-3-(4-(3-(4-(Trifluoromethyl)benzamido)benzyloxy)phenyl)-3-(isoxazol-3-yl)propanoic acid] was 100 to 1000 nM; that for `O=C(O)C[C@@H](c1ccc(OCc2ccc(C3=CCCC3)c(OC(F)(F)F)c2)cc1)c1ccon1` [Example 28, (S)-3-(4-(4-Cyclopentenyl-3-(trifluoromethoxy)benzyloxy)-phenyl)-3-(isoxazol-3-yl)propanoic acid] was 10 to 100 nM; that for `CC(C)(C)C(=O)Nc1cccc(COc2ccc([C@H](CC(=O)O)c3ccon3)cc2)c1` [Example 30, (S)-3-(4-(3-Pivalamidobenzyloxy)phenyl)-3-(isoxazol-3-yl)propanoic acid] was 1000 to 10000 nM.
As to `O=C(O)C[C@@H](c1ccc(OCc2cccc(Sc3ccc(C(F)(F)F)cc3)c2)cc1)c1ccon1` [Example 31, (S)-3-(4-(3-(4-(Trifluoromethyl)phenylthio)benzyloxy)phenyl)-3-(isoxazol-3-yl)propanoic acid], the EC50 lay in the range of 10 to 100 nM.
`O=C(O)C[C@@H](c1ccc(OCc2cccc(NS(=O)(=O)c3ccc(C(F)(F)F)cc3)c2)cc1)c1ccon1` [Example 32, (S)-3-(4-(3-(4-Trifluoromethylphenylsulfonamido)benzyloxy)-phenyl)-3-(isoxazol-3-yl)propanoic acid] yielded a half-maximal effective concentration (EC50) of 100 to 1000 nM.
Under `O=C(O)C[C@@H](c1ccc(OCc2cccc(S(=O)(=O)c3ccc(C(F)(F)F)cc3)c2)cc1)c1ccon1` [Example 33, (S)-3-(4-(3-(4-(Trifluoromethyl)phenylsulfonyl)benzyloxy)-phenyl)-3-(isoxazol-3-yl)propanoic acid] stands 100 to 1000 nM.

By EC50 is commonly meant the midpoint of the concentration-response curve. Low readings indicate an effect from little substance, high ones a need for much substance.
